Calls of active or inactive are those of the source. The rule behind the calls is not given here.
System: GENE-TOX genotoxicity assays, various organisms and cells
Assay: GENE-TOX mutagenicity studies
Conditions: for call: Assay Type: In vivo carcinogenicity studies
[1] = Species/Cell Type: Mammalian polychromatic erythrocytes, Assay Type: Micronucleus test, chromosome aberrations, Assay Code: MNTT, Evaluation Type: Evaluation B (Post-1980)
[2] = Species/Cell Type: Salmonella typhimurium (one or more of the five standard strains: TA98, TA100, TA1535, TA1537, and TA1538), Assay Type: Histidine reverse gene mutation, Ames assay, Assay Code: SAL+, Evaluation Type: Evaluation A (Pre-1980)
[3] = Species/Cell Type: Drosophila melanogaster, Assay Type: Sex-linked recessive lethal gene mutation, Assay Code: SRLT, Evaluation Type: Evaluation A (Pre-1980)
[4] = Species/Cell Type: Human diploid fibroblasts, Assay Type: Unscheduled DNA synthesis (UDS) in vitro, DNA effects, Assay Code: UDHT, Evaluation Type: Evaluation A (Pre-1980)
[5] = Species/Cell Type: Mouse, Sex: Male, Assay Type: Sperm morphology, Assay Code: SPI-, Evaluation Type: Evaluation A (Pre-1980)
[6] = Species/Cell Type: Nonhuman, Assay Code: CCG+, Evaluation Type: Evaluation A (Pre-1980)
[7] = Species/Cell Type: Nonhuman, Assay Type: Sister-chromatid exchange (SCE) in vivo, Assay Code: SC3+, Evaluation Type: Evaluation B (Post-1980)
[8] = Species/Cell Type: Saccharomyces cerevisiae, Assay Type: Mitotic recombination or gene conversion, Assay Code: YEH-, Evaluation Type: Evaluation A (Pre-1980)
[9] = Species/Cell Type: Salmonella typhimurium (one or more of the five standard strains: TA98, TA100, TA1535, TA1537, and TA1538), Assay Type: Histidine reverse gene mutation, Ames assay, Assay Code: SAL+*, Activation: With metabolic activation, Evaluation Type: Evaluation A (Pre-1980)
[10] = Species/Cell Type: Neurospora crassa, Assay Type: Forward gene mutation, Assay Code: NEF+, Evaluation Type: Evaluation A (Pre-1980)
[11] = Species/Cell Type: Schizosaccharomyces pombe, Assay Type: Reverse gene mutation, Assay Code: YEZ+, Evaluation Type: Evaluation A (Pre-1980)
[12] = Species/Cell Type: Human lymphocytes, Assay Type: Sister-chromatid exchange (SCE) in vitro, Assay Code: SCL+D, Dose Response: With dose response, Evaluation Type: Evaluation B (Post-1980)
[13] = Species/Cell Type: Human, Assay Type: Sister-chromatid exchange (SCE) in vitro, Assay Code: SC1+D, Dose Response: With dose response, Evaluation Type: Evaluation B (Post-1980)

## c1ccc2c(c1)Oc1ccccc1O2
Species/Cell Type: Nonhuman, Assay Code: CCG-L, Evaluation Type: Evaluation A (Pre-1980)
  call: inactive; negative

## C[C@@H]1O[C@@H](OC[C@H]2O[C@@H](Oc3c(-c4ccc(O)c(O)c4)oc4cc(O)cc(O)c4c3=O)[C@H](O)[C@@H](O)[C@@H]2O)[C@H](O)[C@H](O)[C@H]1O
[1]
  mutagenic call: no conclusion

## BrCC(Br)CBr
[2]
  mutagenic call: active; positive

## CCCCOc1ccc(CC(=O)OC)cc1CSC(=N)N
Species/Cell Type: Saccharomyces cerevisiae, Assay Type: Reverse gene mutation, Assay Code: YERT, Evaluation Type: Evaluation A (Pre-1980)
  mutagenic call: no conclusion

## CN(C)c1ccc(N=Nc2ccccc2)cc1
Species/Cell Type: Bacillus subtilis (H17 vs M45T), Assay Type: Rec-assay, spot test, DNA effects (bacterial DNA repair), Assay Code: REXT, Evaluation Type: Evaluation A (Pre-1980)
  mutagenic call: no conclusion
[3]
  mutagenic call: no conclusion
Species/Cell Type: Escherichia coli polA (W3110 vs P3478), Assay Type: Rec-assay, DNA effects (bacterial DNA repair), Assay Code: RE2-, Evaluation Type: Evaluation A (Pre-1980)
  mutagenic call: inactive; negative
Species/Cell Type: Escherichia coli polA (W3119 vs P3478), Assay Type: Rec-assay, DNA effects (bacterial DNA repair), Assay Code: RE1T, Evaluation Type: Evaluation A (Pre-1980)
  mutagenic call: no conclusion
Species/Cell Type: Fischer rat embryo (RLV/1706) cells, Assay Type: Cell transformation, viral enhanced, Assay Code: CTR+, Evaluation Type: Evaluation A (Pre-1980)
  mutagenic call: active; positive
[4]
  mutagenic call: no conclusion
Species/Cell Type: Mammalian polychromatic erythrocytes, Assay Type: Micronucleus test, chromosome aberrations, Assay Code: MNT+, Evaluation Type: Evaluation A (Pre-1980)
  mutagenic call: active; positive
Species/Cell Type: Mouse (BALB/c-3T3) cells, Assay Type: Cell transformation, Assay Code: CTB-, Evaluation Type: Evaluation A (Pre-1980)
  mutagenic call: inactive; negative
[5]
  mutagenic call: inactive; negative
[6]
  call: active; positive
Species/Cell Type: Nonhuman, Assay Type: Sister-chromatid exchange (SCE) in vitro, Assay Code: SC2+D*, Activation: With metabolic activation, Dose Response: With dose response, Evaluation Type: Evaluation B (Post-1980)
  mutagenic call: active; positive
[7]
  mutagenic call: active; positive
[8]
  mutagenic call: inactive; negative
[9]
  mutagenic call: active; positive
Species/Cell Type: Salmonella typhimurium, Assay Type: Forward and reverse gene mutation, body fluid assay, Assay Code: BFU+, Evaluation Type: Evaluation A (Pre-1980)
  mutagenic call: active; positive
Species/Cell Type: Syrian hamster embryo (SHE) cells, Assay Type: Cell transformation, clonal assay, Assay Code: CTCT, Evaluation Type: Evaluation A (Pre-1980)
  mutagenic call: no conclusion

## CC1CC2OC(=O)C(C)C2CC2(C)C(O)OC(O)CC12 (stereo not drawn)
[2]
  mutagenic call: active; positive

## Cc1cc2cc3c(C)cc(=O)oc3c(C)c2o1
Species/Cell Type: Human lymphocytes, Assay Type: Sister-chromatid exchange (SCE) in vitro, Assay Code: SCLT, Evaluation Type: Evaluation A (Pre-1980)
  mutagenic call: no conclusion
Species/Cell Type: Human, Assay Type: Sister-chromatid exchange (SCE) in vitro, Assay Code: SC1T, Evaluation Type: Evaluation A (Pre-1980)
  mutagenic call: no conclusion

## C(CC1CO1)C1CO1 (stereo not drawn)
[10]
  mutagenic call: active; positive
Species/Cell Type: Nonhuman, Assay Code: CCG+L, Evaluation Type: Evaluation A (Pre-1980)
  call: active; positive
[11]
  mutagenic call: active; positive

## c1ccc2c(c1)-c1ccccc1C1OC21 (stereo not drawn)
Species/Cell Type: Mouse prostate cells, Assay Type: Cell transformation, Assay Code: CTM-, Evaluation Type: Evaluation A (Pre-1980)
  mutagenic call: inactive; negative
Species/Cell Type: Syrian hamster embryo (SHE) cells, Assay Type: Cell transformation, clonal assay, Assay Code: CTC+, Evaluation Type: Evaluation A (Pre-1980)
  mutagenic call: active; positive

## O=[N+]([O-])c1ccc(/C=C/c2cnc(N(CO)CO)nn2)o1
[6]
  call: active; positive

## CCCCN(CCCC)N=O
Species/Cell Type: Chinese hamster lung (V79) cells, Assay Type: Forward gene mutation at the HPRT or ouabain locus, Assay Code: V79+, Evaluation Type: Evaluation A (Pre-1980)
  mutagenic call: active; positive
Species/Cell Type: Chinese hamster ovary (CHO) cells, Assay Type: Forward gene mutation at the HPRT locus, Assay Code: CHO+*, Activation: With metabolic activation, Evaluation Type: Evaluation B (Post-1980)
  mutagenic call: active; positive
[4]
  mutagenic call: no conclusion
Species/Cell Type: Mammalian polychromatic erythrocytes, Assay Type: Micronucleus test, chromosome aberrations, Assay Code: MNTT, Evaluation Type: Evaluation A (Pre-1980)
  mutagenic call: no conclusion
[5]
  mutagenic call: inactive; negative
Species/Cell Type: Nonhuman, Assay Type: Chromosome aberrations in vitro, Assay Code: CY&-, Evaluation Type: Evaluation A (Pre-1980)
  mutagenic call: inactive; negative
[6]
  call: active; positive
Species/Cell Type: Nonhuman, Assay Type: Sister-chromatid exchange (SCE) in vitro, Assay Code: SC2+D, Dose Response: With dose response, Evaluation Type: Evaluation B (Post-1980)
  mutagenic call: active; positive
Species/Cell Type: Nonhuman, Assay Type: Sister-chromatid exchange (SCE) in vitro, Assay Code: SC2T, Evaluation Type: Evaluation A (Pre-1980)
  mutagenic call: no conclusion
[7]
  mutagenic call: active; positive
[9]
  mutagenic call: active; positive

## Oc1ccccc1O
Species/Cell Type: Allium cepa, Assay Type: Chromosome aberrations, Assay Code: ALC+, Evaluation Type: Evaluation A (Pre-1980)
  mutagenic call: active; positive
[12]
  mutagenic call: active; positive
[13]
  mutagenic call: active; positive
[1]
  mutagenic call: no conclusion

## CCC(C)c1cc([N+](=O)[O-])cc([N+](=O)[O-])c1O (stereo not drawn)
Species/Cell Type: Bacillus subtilis (H17 vs M45), Assay Type: Rec-assay, spot test, DNA effects (bacterial DNA repair), Assay Code: REW+, Evaluation Type: Evaluation A (Pre-1980)
  mutagenic call: active; positive
[3]
  mutagenic call: no conclusion
Species/Cell Type: Escherichia coli WP2 UVRA, Assay Type: Tryptophan reverse gene mutation, Assay Code: WPU-*, Activation: With metabolic activation, Evaluation Type: Evaluation A (Pre-1980)
  mutagenic call: inactive; negative
Species/Cell Type: Escherichia coli polA (W3119 vs P3478), Assay Type: Rec-assay, DNA effects (bacterial DNA repair), Assay Code: RE1+, Evaluation Type: Evaluation A (Pre-1980)
  mutagenic call: active; positive
Species/Cell Type: Human diploid fibroblasts, Assay Type: Unscheduled DNA synthesis (UDS) in vitro, DNA effects, Assay Code: UDH-, Evaluation Type: Evaluation A (Pre-1980)
  mutagenic call: inactive; negative
Species/Cell Type: Saccharomyces cerevisiae, Assay Type: Mitotic recombination or gene conversion, Assay Code: YEC+, Evaluation Type: Evaluation A (Pre-1980)
  mutagenic call: active; positive
[8]
  mutagenic call: inactive; negative
Species/Cell Type: Salmonella typhimurium (one or more of the five standard strains: TA98, TA100, TA1535, TA1537, and TA1538), Assay Type: Histidine reverse gene mutation, Ames assay, Assay Code: SALT, Evaluation Type: Evaluation A (Pre-1980)
  mutagenic call: no conclusion

## CC(C(=O)O)c1ccc(C(=O)c2ccccc2)s1 (stereo not drawn)
Species/Cell Type: Human lymphocytes, Assay Type: Sister-chromatid exchange (SCE) in vivo, Assay Code: SCY+, Evaluation Type: Evaluation B (Post-1980)
  mutagenic call: active; positive

## CCOC(=O)N1CC1
[11]
  mutagenic call: active; positive

## CCN(CC)CCn1nc2c3c(c(CO)ccc31)Sc1ccccc1-2
[3]
  mutagenic call: no conclusion
Species/Cell Type: Mouse lymphoma (L5178Y) cells, Assay Type: Forward gene mutation at the thymidine kinase (TK) locus, chromosome aberrations, Assay Code: L51+, Evaluation Type: Evaluation A (Pre-1980)
  mutagenic call: active; positive
[10]
  mutagenic call: active; positive

## Cc1cc2c(c3ccc4ccccc4c13)CCCC2=O
[9]
  mutagenic call: active; positive

## CC(=O)c1ccc([N+](=O)[O-])o1
[2]
  mutagenic call: active; positive

## O=C(O)c1ccccc1C(=O)Nc1cccc2ccccc12
Species/Cell Type: Hordeum vulgare (barley), Assay Type: Chromosome aberrations, Assay Code: HOC+, Evaluation Type: Evaluation A (Pre-1980)
  mutagenic call: active; positive
Species/Cell Type: Vicia faba, Assay Type: Chromosome aberrations, Assay Code: VIC+, Evaluation Type: Evaluation A (Pre-1980)
  mutagenic call: active; positive

## CCCCN(CCO)N=O
[2]
  mutagenic call: active; positive

## C=Cc1cc(C)cc(C)c1
[12]
  mutagenic call: active; positive
[13]
  mutagenic call: active; positive

## COc1ccc(N2CCN(c3ccc([N+](=O)[O-])c4no[n+]([O-])c34)CC2)cc1
[2]
  mutagenic call: active; positive

## CCCOC(=O)c1cc(O)c(O)c(O)c1
Species/Cell Type: Human, Assay Type: Sister-chromatid exchange (SCE) in vitro, Assay Code: SC1T, Evaluation Type: Evaluation B (Post-1980)
  mutagenic call: no conclusion

## c1ccc(Nc2ccccc2)cc1
Species/Cell Type: Syrian hamster embryo (SA7/SHE) cells, Assay Type: Cell transformation, viral enhanced, Assay Code: CT7+, Evaluation Type: Evaluation A (Pre-1980)
  mutagenic call: active; positive

## COc1ccc2nc3cc(Cl)ccc3c(NCCCSCCCl)c2n1
Species/Cell Type: Chinese hamster ovary (CHO) cells, Assay Type: Forward gene mutation at the HPRT locus, Assay Code: CHO+, Evaluation Type: Evaluation B (Post-1980)
  mutagenic call: active; positive
